Values after ≈ are worked out from the molar mass of the structure shown.
System: E. coli (AAC(3)IV)
Assay: MIC 50, broth micro-dilution, E. coli expressing AAC(3)IV
Type: cell-based, Escherichia coli
Settings: ATCC25922 harboring plasmid encoding AAC(3)IV
Procedure: Plasmid transformation. Approximately 500 ng of the pET-9b(+) (Cat. No. 69432-3, Merck), pAT21-1 (provided by Prof. Dr. Patrice Courvalin, M.D., Pasteur Institute, France; prepared according to Trieu-Cuot et. al, Mol. Gen. Genet. 198(2), 348 (1985)), pBluescript::AAC(6′)-Ie/APH(2″)-Ia (provided by Prof. Dr. Sergei Vakulenko, M.D., University of Notre Dame, Ind., USA; prepared according to S. B. Vakulenko et. al., J. Biol. Chem. 287 (52), 43262 (2012)), pBlue_lpp_aacC3_rrnC and pSET152 (Cat. No. PVT3395, Life Science Market; prepared according to Bierman et al., Gene 116 (1), 43 (1992)) plasmids, encoding APH(3′)-Ia (SEQ ID NO:2), APH(3′)-IIIa (SEQ ID NO:3), AAC(6′)Ie-APH(2″)-Ia (SEQ ID NO:4), AAC(3)-III (SEQ ID NO:1), and AAC(3)-IV (SEQ ID NO:5) respectively, were individually incubated in a vial of competent cells for 15 min on ice. The cells were subsequently heated to 42° C. for 90 s, and cooled on ice for 1 min. After addition of 900 μL LB, the cells were incubated for 1 h at 37° C. and 200 rpm. Cells were plated on LB-agar supplemented with 50 μg/mL KanaA and incubated for 18 h at 37° C. The next day, a single colony was inoculated in 5 mL LB supplemented with 50 μg/mL and grown for 18 h at 37° C. and 200 rpm. A 200 μL sample of each culture was diluted with 200 μL of 40% v/v glycerol in water, and stored at −80° C. The plasmid was purified from the remaining culture using the Plasmid Miniprep kit. Plasmid DNA was investigated by Eurofins Genomics (Germany) to confirm the identity of the aminoglycoside resistance genes.
3.1 Against E. coli Strains
Tested reference compounds. Amikacin sulfate (Cat. No. 01693, Chem-Impex), Gentamicin sulfate (Cat. No. G4918, Sigma Aldrich).
Microbial strains. E. coli ATCC 25922, E. coli ATCC 25922/pET-9b(+), E. coli ATCC 25922/pAT21-1, E. coli ATCC 25922/pBluescript::AAC(6′)-Ie/APH(2″)-Ia, E. coli ATCC 25922/pBlue_lpp_aacC3_rrnC, E. coli ATCC 25922/pSET152.
Culture media and equipment. BBL™ Mueller Hinton Broth 2 (Lot. BCBW1143, Cat. No. 70192, Sigma); Kanamycin A (Cat. No. A1493, AppliChem); 96-well deep well plate, 1 mL (Cat. No. 0030506.200, Eppendorf); Plate lids (Cat. No. 0030131.525, Eppendorf); 96-well plate, F-bottom (Cat. No. 781602, Brand; Incubator, Infors Multitron Pro); Laminar flow (Heraeus KS12); UV/VIS meter (Eppendorf BioPhotometer Plus); Platereader (Tecan Sunrise).
Compound preparation. Compounds were prepared in MH2 media at a concentration of 5 mM and stored at 4° C. For testing, solutions of 128 μM were prepared in MH2. Out of these working solutions, 400 μL was transferred to wells in the first column of 96-well deep well plates. Each compound was transferred in triplicate. Plates were previously filled with 200 μL of MH2 media in all wells except for the wells in the first column. After compound and antibiotic addition, the compounds were serial two-fold diluted by transferring 200 μL from the first to the second column, then from the second to the third column and so on. Finally, 200 μL was removed from the last column.
Inoculum preparation. Microorganisms used were all revived from 20% glycerol (40% v/v glycerol in water was diluted with MH2) storage at −80° C. by inoculating them in 5 mL MH2. inoculums of E. coli containing a plasmid were selected for by adding 50 μg/mL KanaA. The Inoculums were grown to an optical density (measured by UV/Vis spectroscopy) of 0.6-0.8 at 600 nm. Out of these suspensions, actual inoculums were prepared by diluting them to an optical density (OD) of 0.1 in MH2 media. From these inoculums, 200 μL was transferred to each well, resulting in a final compound concentration range of 64 μM-31.3 nM. All plates were incubated at 900 rpm and 70% rH for 18 h at 37° C.
MIC determination. After 18 h of growth, 200 μL was transferred to a 96-well F-bottom plate. The optical density was determined by a plate reader at 600 nm, with 10 s shaking before reading. Triplicate measurements were averaged, and a growth curve was plotted in Microsoft Excel. […]

Compared with NCCC(O)C(=O)NC1CC(N)C(OC2OC(CN)C(O)C(O)C2N)C(O)C1OC1OC(CO)C(O)C(N)C1O (centres unmarked) [ABX4001, KanaB-AHB], NCC[C@H](O)C(=O)N[C@@H]1CC(N)[C@@H](O[C@H]2OC(CN)[C@@H](O)[C@@H](O)C2N)[C@H](O)C1OC1O[C@H](CO)[C@@H](O)C(N)[C@H]1O (stereo partly drawn) [ABX4002, 3′Epi-KanaB-AHB] is higher in “MIC50” value: 4 µM (≈ 2.34 µg/mL) for the first, 8 to 16 µM for the second.

First: N=C(N)NC1[C@@H](O)C(OC2[C@@H](O)[C@H](O[C@H]3OC(CN)[C@@H](O)CC3N)C(N)C[C@H]2NC(=O)[C@@H](O)CCN)O[C@H](CO)[C@H]1O (some centres unmarked) [ABX5005, Tobra-AHB-Gua]
Second: N=C(N)N[C@@H]1[C@@H](O)[C@@H](O[C@@H]2[C@@H](O)[C@H](O[C@H]3O[C@H](CN)[C@@H](O)[C@@H](O)[C@H]3N)[C@@H](N)C[C@H]2NC(=O)[C@@H](O)CCN)O[C@H](CO)[C@H]1O [ABX4005, 3′Epi-KanaB-AHB-Gua]
The “MIC50” value of the first is lower: 1 to 2 µM for the first, 16 µM (≈ 10 µg/mL) for the second.

Going from N=C(N)NC1[C@@H](O)C(OC2[C@@H](F)[C@H](O[C@H]3OC(CN)[C@@H](O)[C@H](O)C3N)C(N)C[C@H]2NC(=O)[C@@H](O)CCN)O[C@H](CO)[C@H]1O (stereo partly drawn) [ABX4004, 3′epi-KanaB-AHB-F-Gua] to N=C(N)NC1[C@@H](O)C(OC2[C@@H](O)[C@H](O[C@H]3OC(CN)[C@@H](O)[C@H](O)C3N)C(N)C[C@H]2NC(=O)[C@@H](O)CCN)O[C@H](CO)[C@H]1O (some centres unmarked) [ABX4009, KanaB-AHB-Gua], the “MIC50” value rises from 4 µM (≈ 2.51 µg/mL) to 8 µM (≈ 5.01 µg/mL) (2-fold).

First: NCC[C@H](O)C(=O)N[C@@H]1CC(N)[C@@H](O[C@H]2OC(CN)[C@@H](O)CC2N)[C@H](F)C1OC1O[C@H](CO)[C@@H](O)C(N)[C@H]1O (some centres unmarked) [ABX5024, Tobra-AHB-F]
Second: NCC[C@H](O)C(=O)N[C@@H]1CC(N)[C@@H](O[C@H]2OC(CN)[C@@H](O)[C@@H](O)C2N)[C@H](F)C1OC1O[C@H](CO)[C@@H](O)C(N)[C@H]1O (stereo partly drawn) [ABX4003, 3′Epi-KanaB-AHB-F]
The “MIC50” value of the first is lower: 2 µM (≈ 1.14 µg/mL) for the first, 8 to 16 µM for the second.

For NCCC(O)C(=O)NC1CC(N)C(OC2OC(CN)C(O)C(O)C2O)C(F)C1OC1OC(CO)C(O)C(N)C1O (stereo not drawn) [ABX3005, 3′Epi-KanaA-AHB-F], the “MIC50” value was 8 to 16 µM.

Same assay, conditions: Escherichia coli, ATCC25922, ATCC25922 harboring plasmid encoding AAC(3)IV

First: N=C(NCCN)NC1C(O)[C@@H](CO)OC(OC2C(F)[C@H](O[C@H]3OC(CN)[C@@H](O)CC3N)C(N)C[C@H]2NC(=O)[C@@H](O)CCN)[C@@H]1O (some centres unmarked) [ABX5020, Tobra-AHB-F-Gua-2-amino-ethyl]
Second: N=C(NCCCN)NC1[C@@H](O)C(OC2[C@@H](F)[C@H](O[C@H]3OC(CN)[C@@H](O)CC3N)C(N)C[C@H]2NC(=O)[C@@H](O)CCN)O[C@H](CO)[C@H]1O (some centres unmarked) [ABX5030, Tobra-AHB-F-Gua-3-amino-propyl]
The MIC50 of the first is 2-fold higher: 1 µM (≈ 0.656 µg/mL) for the first, 0.5 µM (≈ 0.335 µg/mL) for the second.

N=C(NC[C@@H]1CCNC1)NC1[C@@H](O)C(OC2[C@@H](F)[C@H](O[C@H]3OC(CN)[C@@H](O)CC3N)C(N)C[C@H]2NC(=O)[C@@H](O)CCN)O[C@H](CO)[C@H]1O (stereo partly drawn) [ABX5039, Tobra-AHB-F-Gua (R) pyrrolidine-3-ylmethyl] and N=C(NC[C@H]1CCNC1)NC1[C@@H](O)C(OC2[C@@H](F)[C@H](O[C@H]3OC(CN)[C@@H](O)CC3N)C(N)C[C@H]2NC(=O)[C@@H](O)CCN)O[C@H](CO)[C@H]1O (stereo partly drawn) [ABX5042, Tobra-AHB-F-Gua (S) pyrrolidine-3-ylmethyl] are the same in MIC50: 1 µM (≈ 0.696 µg/mL) for the first, 1 µM (≈ 0.696 µg/mL) for the second.

N=C(NCCO)NC1[C@@H](O)C(OC2[C@@H](F)[C@H](O[C@H]3OC(CN)[C@@H](O)CC3N)C(N)C[C@H]2NC(=O)[C@@H](O)CCN)O[C@H](CO)[C@H]1O (some centres unmarked) [ABX5029, Tobra-AHB-F-Gua 2-hydroxy-ethyl] and N=C(NCCCO)NC1[C@@H](O)C(OC2[C@@H](F)[C@H](O[C@H]3OC(CN)[C@@H](O)CC3N)C(N)C[C@H]2NC(=O)[C@@H](O)CCN)O[C@H](CO)[C@H]1O (some centres unmarked) [ABX5041, Tobra-AHB-F-Gua 3-hydroxy-propyl] are the same in MIC50: 2 µM (≈ 1.31 µg/mL) for the first, 2 µM (≈ 1.34 µg/mL) for the second.

First: N=C(N)NC1[C@@H](O)C(OC2[C@@H](F)[C@H](O[C@H]3OC(CN)[C@@H](O)[C@H](O)C3N)C(N)C[C@H]2NC(=O)[C@@H](O)CCN)O[C@H](CO)[C@H]1O (some centres unmarked) [ABX4006, KanaB-AHB-F-Gua]
Second: N=C(N)NC1C(O)[C@@H](CO)OC(OC2C(F)[C@H](O[C@H]3OC(CN)[C@@H](O)CC3N)C(N)C[C@H]2NC(=O)[C@@H](O)CCN)[C@@H]1O (some centres unmarked) [ABX5006, Tobra-AHB-F-Gua]
The MIC50 of the first is higher: 2 µM (≈ 1.26 µg/mL) for the first, 0.5 to 1 µM (≈ 0.306 to 0.613 µg/mL) for the second.

N=C(NCC1CC1)NC1[C@@H](O)C(OC2[C@@H](F)[C@H](O[C@H]3OC(CN)[C@@H](O)CC3N)C(N)C[C@H]2NC(=O)[C@@H](O)CCN)O[C@H](CO)[C@H]1O (some centres unmarked) [ABX5027, Tobra-AHB-F-Gua cyclopropylmethyl] and N=C(NCC1CCOC1)NC1[C@@H](O)C(OC2[C@@H](F)[C@H](O[C@H]3OC(CN)[C@@H](O)CC3N)C(N)C[C@H]2NC(=O)[C@@H](O)CCN)O[C@H](CO)[C@H]1O (some centres unmarked) [ABX5051, Tobra-AHB-F-Gua tetrahydrofuran-3-yl methyl] are the same in MIC50: 2 µM (≈ 1.33 µg/mL) for the first, 2 µM (≈ 1.39 µg/mL) for the second.

N=C(NC[C@@H]1CNCCO1)NC1[C@@H](O)C(OC2[C@@H](F)[C@H](O[C@H]3OC(CN)[C@@H](O)CC3N)C(N)C[C@H]2NC(=O)[C@@H](O)CCN)O[C@H](CO)[C@H]1O (stereo partly drawn) [ABX5040, Tobra-AHB-F-Gua (S) morpholin-2-yl methyl] and N=C(NC[C@H]1CNCCO1)NC1[C@@H](O)C(OC2[C@@H](F)[C@H](O[C@H]3OC(CN)[C@@H](O)CC3N)C(N)C[C@H]2NC(=O)[C@@H](O)CCN)O[C@H](CO)[C@H]1O (stereo partly drawn) [ABX5043, Tobra-AHB-F-Gua (R) morpholin-2-yl methyl] are the same in MIC50: 1 µM (≈ 0.712 µg/mL) for the first, 1 µM (≈ 0.712 µg/mL) for the second.

C[C@@H](N)CCNC(=N)NC1[C@@H](O)C(OC2[C@@H](F)[C@H](O[C@H]3OC(CN)[C@@H](O)CC3N)C(N)C[C@H]2NC(=O)[C@@H](O)CCN)O[C@H](CO)[C@H]1O (stereo partly drawn) [ABX5047, Tobra-AHB-F-Gua (R) 3-amino-butyl] and CNCCNC(=N)NC1[C@@H](O)C(OC2[C@@H](F)[C@H](O[C@H]3OC(CN)[C@@H](O)CC3N)C(N)C[C@H]2NC(=O)[C@@H](O)CCN)O[C@H](CO)[C@H]1O (some centres unmarked) [ABX5038, Tobra-AHB-F-Gua 2-(methylamino)ethyl] cannot be ordered by MIC50: 1 to 2 µM (≈ 0.684 to 1.37 µg/mL) for the first, 1 µM (≈ 0.67 µg/mL) for the second.

CC(C)(C)CCNC(=N)NC1[C@@H](O)C(OC2[C@@H](F)[C@H](O[C@H]3OC(CN)[C@@H](O)CC3N)C(N)C[C@H]2NC(=O)[C@@H](O)CCN)O[C@H](CO)[C@H]1O (some centres unmarked) [ABX5025, Tobra-AHB-F-Gua 2-tBu-ethyl] and N=C(NCC1CCCO1)NC1[C@@H](O)C(OC2[C@@H](F)[C@H](O[C@H]3OC(CN)[C@@H](O)CC3N)C(N)C[C@H]2NC(=O)[C@@H](O)CCN)O[C@H](CO)[C@H]1O (some centres unmarked) [ABX5046, Tobra-AHB-F-Gua tetrahydrofuran-2-yl methyl] cannot be ordered by MIC50: 2 µM (≈ 1.39 µg/mL) for the first, 1 to 2 µM (≈ 0.697 to 1.39 µg/mL) for the second.

Compound N=C(NC[C@@H]1CCCN1)NC1[C@@H](O)C(OC2[C@@H](F)[C@H](O[C@H]3OC(CN)[C@@H](O)CC3N)C(N)C[C@H]2NC(=O)[C@@H](O)CCN)O[C@H](CO)[C@H]1O (stereo partly drawn) [ABX5026, Tobra-AHB-F-Gua (S) pyrrolidine-2-yl-methyl] has an MIC50 of 0.5 µM (≈ 0.348 µg/mL).
